Assay results: US10118902B2 (Sanford Burnham Prebys Medical Discovery Institute, priority 2014, dated 2018)
pEC50: −log10 of the molar value.

target: neurotensin receptor 1 (NTR1) (Homo sapiens (Human), UniProt P30989); assay: NTR1 dose response, high-content imaging beta-arrestin-GFP assay in NTR1-U2OS cells; format: cell-based; conditions: read-out: EC50
Sequence (P30989 whole entry, species assumed): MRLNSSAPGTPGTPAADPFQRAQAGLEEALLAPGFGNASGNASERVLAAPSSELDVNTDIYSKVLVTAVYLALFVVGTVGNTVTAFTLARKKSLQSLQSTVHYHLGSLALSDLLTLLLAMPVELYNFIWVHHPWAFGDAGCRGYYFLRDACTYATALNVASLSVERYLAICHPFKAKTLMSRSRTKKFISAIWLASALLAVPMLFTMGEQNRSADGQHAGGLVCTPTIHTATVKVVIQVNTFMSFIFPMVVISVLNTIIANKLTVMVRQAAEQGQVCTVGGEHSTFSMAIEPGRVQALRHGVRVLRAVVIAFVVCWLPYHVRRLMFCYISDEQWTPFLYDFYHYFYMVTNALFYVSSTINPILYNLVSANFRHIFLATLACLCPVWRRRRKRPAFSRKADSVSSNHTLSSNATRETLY

| Structure (SMILES) | pEC50 |
| --- | --- |
| CCCN(C)c1ccc2nc(C3CC3)nc(NC3CCCC3N(C)c3ccccc3OC)c2c1 (centres unmarked) [Example 152, 2-cyclopropyl-N4-{2-[(2-methoxy-phenyl)-methyl-amino]-cyclopentyl}-N6-methyl-N6-propyl-quinazoline-4,6-diamine] | < 5.00 |
| COc1ccccc1N1CCC(Nc2nc(C3CC3)nc3ccc(N(C)CCO)cc23)C1 (centres unmarked) [Example 154, 2-((2-cyclopropyl-4-((1-(2-methoxyphenyl)pyrrolidin-3-yl)amino)quinazolin-6-yl)(methyl)amino)ethanol] | < 5.00 |
| CCCN(C)c1ccc2nc(C3CC3)nc(NC3CCN(c4ccccc4OC)C3)c2c1 (centres unmarked) [Example 155, 2-cyclopropyl-N4-(1-(2-methoxyphenyl)pyrrolidin-3-yl)-N6-methyl-N6-propylquinazoline-4,6-diamine] | < 5.00 |
| COC(=O)Cc1c(C)nc(C2CC2)nc1N1CCC(c2ccccc2OC)CC1 [Example 156, Methyl 2-(2-cyclopropyl-4-(4-(2-methoxyphenyl)piperidin-1-yl)-6-methylpyrimidin-5-yl)acetate] | < 5.00 |
| COc1ccccc1C1CCN(c2nc(C3CC3)nc(C)c2CC(=O)N(C)C)CC1 [Example 157, 2-{2-cyclopropyl-4-[4-(2-methoxy-phenyl)-piperidin-1-yl]-6-methyl-pyrimidin-5-yl}-N,N-dimethyl-acetamide] | < 5.00 |
| CCCN(C)C(=O)Cc1c(C)nc(C2CC2)nc1N1CCC(c2ccccc2OC)CC1 [Example 158, 2-{2-cyclopropyl-4-[4-(2-methoxy-phenyl)-piperidin-1-yl]-6-methyl-pyrimidin-5-yl}-N-methyl-N-propyl-acetamide] | < 5.00 |
| COc1ccccc1C1CCN(c2nc(C3CC3)nc(C)c2CC(=O)Nc2ccccc2)CC1 [Example 160] | < 5.00 |
| COC(=O)Cc1c(C)nc(N2CCC(c3ccccc3OC)CC2)nc1C1CC1 [Example 161, {4-cyclopropyl-2-[4-(2-methoxy-phenyl)-piperidin-1-yl]-6-methyl-pyrimidin-5-yl}-acetic acid methyl ester] | < 5.00 |
| CCCN(C)C(=O)Cc1c(C)nc(N2CCC(c3ccccc3OC)CC2)nc1C1CC1 [Example 162, 2-{4-cyclopropyl-2-[4-(2-methoxy-phenyl)-piperidin-1-yl]-6-methyl-pyrimidin-5-yl}-N-methyl-N-propyl-acetamide] | < 5.00 |
| COc1ccccc1C1CCN(c2nc(C)c(CC(=O)N(C)CCO)c(C3CC3)n2)CC1 [Example 163, 2-{4-cyclopropyl-2-[4-(2-methoxy-phenyl)-piperidin-1-yl]-6-methyl-pyrimidin-5-yl}-N-(2-hydroxy-ethyl)-N-methyl-acetamide] | < 5.00 |
| CCCN(C)C(=O)Cc1cnc(C2CC2)nc1N1CCC(c2ccccc2OC)CC1 [Example 165, 2-{2-cyclopropyl-4-[4-(2-methoxy-phenyl)-piperidin-1-yl]-pyrimidin-5-yl}-N-methyl-N-propyl-acetamide] | < 5.00 |
| COc1ccccc1C1CCN(c2nc(C3CC3)nc3ccc(N(C)CCO)c(F)c23)CC1 [Example 167, 2-({2-Cyclopropyl-5-fluoro-4-[4-(2-methoxy-phenyl)-piperidin-1-yl]-quinazolin-6-yl}-methyl-amino)-ethanol] | 5.70 to 6.30 |
| COc1ccccc1C1CCN(c2nc(C3CC3)nc3cccc(N(C)CCO)c23)CC1 [Example 168, 2-({2-Cyclopropyl-4-[4-(2-methoxy-phenyl)-piperidin-1-yl]-quinazolin-5-yl}-methyl-amino)-ethanol] | < 5.00 |
| COc1ccccc1C1CCN(c2nc(C3CC3)nc3cc(N(C)CCO)ccc23)CC1 [Example 169, 2-({2-Cyclopropyl-4-[4-(2-methoxy-phenyl)-piperidin-1-yl]-quinazolin-7-yl}-methyl-amino)-ethanol] | 5.00 to 5.70 |
| CCCN(C)c1ccc2c(N3CCC(c4ccccc4OC)CC3)nc(C3CC3)nc2c1 [Example 170, {2-Cyclopropyl-4-[4-(2-methoxy-phenyl)-piperidin-1-yl]-quinazolin-7-yl}-methyl-propyl-amine] | 5.00 to 5.70 |
| COc1ccccc1C1CCN(c2nc(C3(F)CC3)nc3cc(F)c(N(C)CCO)cc23)CC1 [Example 171] | > 6.30 |
| COc1ccccc1C1CCN(c2nc(C3(F)CC3)nc3cc(Cl)c(N(C)CCO)cc23)CC1 [Example 172] | 5.70 to 6.30 |
| COc1ccccc1C1CCN(c2nc(C3CC3)nc3ccc(N4CC[C@H](O)C4)cc23)CC1 [Example 173, (S)-1-(2-cyclopropyl-4-(4-(2-methoxyphenyl)piperidin-1-yl)quinazolin-6-yl)pyrrolidin-3-ol] | 5.70 to 6.30 |
| COc1ccccc1C1CCN(c2nc(C3CC3)nc3ccc(N4CC[C@H](OC)C4)cc23)CC1 [Example 174, (S)-2-cyclopropyl-4-(4-(2-methoxyphenyl)piperidin-1-yl)-6-(3-methoxypyrrolidin-1-yl)quinazoline] | 5.70 to 6.30 |

| Structure (SMILES) | pEC50 |
| --- | --- |
| COc1ccccc1C1CCN(c2nc(C3CC3)nc3ccc(N4CC[C@@H](O)C4)cc23)CC1 [Example 175, (R)-1-{2-cyclopropyl-4-[4-(2-methoxy-phenyl)-piperidin-1-yl]-quinazolin-6-yl}-pyrrolidin-3-ol] | 5.70 to 6.30 |
| COc1ccccc1C1CCN(c2nc(C3CC3)nc3ccc(N4CC[C@@H](OC)C4)cc23)CC1 [Example 176, (R)-2-cyclopropyl-4-[4-(2-methoxy-phenyl)-piperidin-1-yl]-6-(3-methoxy-pyrrolidin-1-yl)-quinazoline] | 5.70 to 6.30 |
| COc1ccccc1C1CCN(c2nc(C3(F)CC3)nc3ccc(N4CC[C@H](O)C4)cc23)CC1 [Example 177, (S)-1-{2-(1-Fluoro-cyclopropyl)-4-[4-(2-methoxy-phenyl)-piperidin-1-yl]-quinazolin-6-yl}-pyrrolidin-3-ol] | 5.70 to 6.30 |
| COc1ccccc1C1CCN(c2nc(C3(F)CC3)nc3ccc(N4CC[C@@H](O)C4)cc23)CC1 [Example 178, (R)-1-{2-(1-Fluoro-cyclopropyl)-4-[4-(2-methoxy-phenyl)-piperidin-1-yl]-quinazolin-6-yl}-pyrrolidin-3-ol] | 5.70 to 6.30 |
| COc1ccccc1C1CCN(c2nc(C3CC3)nc3ccc(N(C)CC(=O)O)cc23)CC1 [Example 179, ({2-Cyclopropyl-4-[4-(2-methoxy-phenyl)-piperidin-1-yl]-quinazolin-6-yl}-methyl-amino)-acetic acid] | > 6.30 |
| COc1ccccc1C1CCN(c2nc(C3(F)CC3)nc3ccc(N(C)CC(=O)O)cc23)CC1 [Example 180, 2-((2-(1-fluorocyclopropyl)-4-(4-(2-methoxyphenyl)piperidin-1-yl)quinazolin-6-yl)(methyl)amino)acetic acid] | 5.00 to 5.70 |
| COc1ccccc1C1CCN(c2nc(C3(F)CCC3)nc3c(Cl)cc(N(C)CCO)cc23)CC1 [Example 181, 2-((8-chloro-2-(1-fluorocyclobutyl)-4-(4-(2-methoxyphenyl)piperidin-1-yl)quinazolin-6-yl)(methyl)amino)ethanol] | 5.70 to 6.30 |
| COc1ccccc1C1CCN(c2nc(C3(F)CCC3)nc3c(Cl)cc(N4CC[C@@H](O)C4)cc23)CC1 [Example 182] | 5.00 to 5.70 |
| COc1ccccc1C1CCN(c2nc(C3(F)CCC3)nc3c(Cl)cc(N4CC[C@H](O)C4)cc23)CC1 [Example 183] | 5.00 to 5.70 |
| COC1CCCC1N1CCN(c2nc(C3CC3)nc3ccc(N(C)CCO)cc23)CC1 (centres unmarked) [Example 184, 2-({2-Cyclopropyl-4-[4-(2-methoxy-cyclopentyl)-piperazin-1-yl]-quinazolin-6-yl}-methyl-amino)-ethanol] | < 5.00 |
| CCCN(C)c1ccc2nc(C3CC3)nc(N3CCN(C4CCCC4OC)CC3)c2c1 (centres unmarked) [Example 185, 2-cyclopropyl-4-(4-(2-methoxycyclopentyl)piperazin-1-yl)-N-methyl-N-propylquinazolin-6-amine] | < 5.00 |
| COC1CCCCC1C1CCN(c2nc(C3(F)CC3)nc3ccc(N(C)CCO)cc23)CC1 (centres unmarked) [Example 189, 2-({2-(1-Fluoro-cyclopropyl)-4-[4-(2-methoxy-cyclohexyl)-piperidin-1-yl]-quinazolin-6-yl}-methyl-amino)-ethanol] | < 5.00 |
| COc1ccsc1C1CCN(c2nc(C3CC3)nc3ccc(N(C)CCO)cc23)CC1 [Example 190, 2-({2-Cyclopropyl-4-[4-(3-methoxy-thiophen-2-yl)-piperidin-1-yl]-quinazolin-6-yl}-methyl-amino)-ethanol] | 5.00 to 5.70 |
| COc1ccccc1C1CCN(c2nc(C#CC3CC3)nc3ccc(N(C)CCO)cc23)CC1 [Example 191, 2-({2-Cyclopropylethynyl-4-[4-(2-methoxy-phenyl)-piperidin-1-yl]-quinazolin-6-yl}-methyl-amino)-ethanol] | 5.00 to 5.70 |
| COc1ccccc1C1CCN(c2nc(OC3CCC3)nc3ccc(N(C)CCO)cc23)CC1 [Example 193, 2-((2-cyclobutoxy-4-(4-(2-methoxyphenyl)piperidin-1-yl)quinazolin-6-yl)(methyl)amino)ethanol] | 5.70 to 6.30 |
| COc1ccccc1C1CCN(c2nc(C3CC3)nc3cnc(N(C)CCN4CCOCC4)cc23)CC1 [Example 194, 2-cyclopropyl-4-(4-(2-methoxyphenyl)piperidin-1-yl)-N-methyl-N-(2-morpholinoethyl)pyrido[3,4-d]pyrimidin-6-amine] | 5.70 to 6.30 |
| COc1ccccc1C1CCN(c2nc(C3(F)CC3)nc3cnc(N(C)CCO)cc23)CC1 [Example 195, 2-({2-(1-Fluoro-cyclopropyl)-4-[4-(2-methoxy-phenyl)-piperidin-1-yl]-pyrido[3,4-d]pyrimidin-6-yl}-methyl-amino)-ethanol] | > 6.30 |
| COc1ccccc1C1CCN(c2nc(C3(F)CC3)nc3cnc(N4CC[C@H](O)C4)cc23)CC1 [Example 196, 1-{2-(1-Fluoro-cyclopropyl)-4-[4-(2-methoxy-phenyl)-piperidin-1-yl]-pyrido[3,4-d]pyrimidin-6-yl}-pyrrolidin-3-ol] | 5.70 to 6.30 |
| COc1ccccc1C1CCN(c2nc(C3(F)CC3)nc3cnc(N4CC[C@@H](O)C4)cc23)CC1 [Example 197, 1-{2-(1-Fluoro-cyclopropyl)-4-[4-(2-methoxy-phenyl)-piperidin-1-yl]-pyrido[3,4-d]pyrimidin-6-yl}-pyrrolidin-3-ol] | 5.70 to 6.30 |
